ChEMBL document CHEMBL4020793 (Bioorg Med Chem Lett, 2017)

Experiments:
Type in all cases: functional, cell-based
HCT-116/VM46 = experiment: Antiproliferative activity against vinblastine-resistant human HCT116/VM46 cells assessed as cell viability after 72 hrs by MTS assay; conditions: HCT-116/VM46, 72 h
HCT-116 = experiment: Antiproliferative activity against human HCT116 cells assessed as cell viability after 72 hrs by MTS assay; conditions: HCT-116, 72 h
L1210 = experiment: Antiproliferative activity against mouse L1210 cells assessed as cell viability after 72 hrs by MTS assay; conditions: L1210, 72 h

Row | IC50 (HCT-116/VM46) | IC50 (HCT-116) | IC50 (L1210) | Structure (SMILES)
1 | > 1000 nM | 790 nM | 480 nM | CCCC[C@]1(O)C[C@H]2CN(CCc3c([nH]c4ccccc34)[C@@](C(=O)OC)(c3cc4c(cc3OC)N(C)[C@H]3[C@@](O)(C(=O)OC)[C@H](OC(C)=O)[C@]5(CC)C=CCN6CC[C@]43[C@@H]65)C2)C1
2 | 8000 nM | 80 nM | 80 nM | CC[C@]12C=CCN3CC[C@@]4(c5cc([C@@]6(C(=O)OC)C[C@@H]7CN(CCc8c6[nH]c6ccccc86)C[C@](O)(CCC#N)C7)c(OC)cc5N(C)[C@H]4[C@@](O)(C(=O)OC)[C@@H]1OC(C)=O)[C@@H]32
3 | 200 nM | 6 nM | 6 nM | CC[C@]12C=CCN3CC[C@@]4(c5cc([C@@]6(C(=O)OC)C[C@@H]7CN(CCc8c6[nH]c6ccccc86)C[C@@]6(O)CCCC[C@H]76)c(OC)cc5N(C)[C@H]4[C@@](O)(C(=O)OC)[C@@H]1OC(C)=O)[C@@H]32
4 | > 1000 nM | > 1000 nM | > 1000 nM | CC[C@]12C=CCN3CC[C@@]4(c5cc([C@@]6(C(=O)OC)C[C@@H]7CN(CCc8c6[nH]c6ccccc86)C[C@](O)(CCO)C7)c(OC)cc5N(C)[C@H]4[C@@](O)(C(=O)OC)[C@@H]1OC(C)=O)[C@@H]32
5 | 60 nM | 0.7 nM | 0.6 nM | CC[C@]12C=CCN3CC[C@@]4(c5cc([C@@]6(C(=O)OC)C[C@@H]7CN(CCc8c6[nH]c6ccccc86)C[C@@]6(O)CCCC[C@@H]76)c(OC)cc5N(C)[C@H]4[C@@](O)(C(=O)OC)[C@@H]1OC(C)=O)[C@@H]32
6 | 3000 nM | 70 nM | 65 nM | CC[C@]12C=CCN3CC[C@@]4(c5cc([C@@]6(C(=O)OC)C[C@@H]7CN(CCc8c6[nH]c6ccccc86)C[C@](O)(CCN=[N+]=[N-])C7)c(OC)cc5N(C)[C@H]4[C@@](O)(C(=O)OC)[C@@H]1OC(C)=O)[C@@H]32
7 | > 1000 nM | 420 nM | 300 nM | CCC[C@]1(O)C[C@H]2CN(CCc3c([nH]c4ccccc34)[C@@](C(=O)OC)(c3cc4c(cc3OC)N(C)[C@H]3[C@@](O)(C(=O)OC)[C@H](OC(C)=O)[C@]5(CC)C=CCN6CC[C@]43[C@@H]65)C2)C1
8 | 420 nM | 6.3 nM | 7.5 nM | CC[C@]12C=CCN3CC[C@@]4(c5cc([C@@]6(C(=O)OC)C[C@@H]7CN(CCc8c6[nH]c6ccccc86)C[C@](O)(CCF)C7)c(OC)cc5N(C)[C@H]4[C@@](O)(C(=O)OC)[C@@H]1OC(C)=O)[C@@H]32
